What was measured:
[1] = system: IFNα-induced STAT phosphorylation (pSTAT5); experiment: IFNα-induced STAT phosphorylation in human whole blood; type: cell-based; conditions: 1 h compound, 1000 U/mL IFNα A/D 15 min, CD3 positive population, read-out: Human Whole blood IFNa pSTAT5 IC50
Protocol: IFNα-Induced STAT Phosphorylation in Human Whole Blood
After an hour long incubation with compound, human whole blood (drawn with ACD-A as anticoagulant) was stimulated with 1000 U/mL recombinant human IFNα A/D (R&D Systems 11200-2) for 15 min. The stimulation was stopped by adding Fix/Lyse buffer (BD 558049). Cells were stained with a CD3 FITC antibody (BD 555916), washed, and permeabilized on ice using Perm III buffer (BD 558050). Cells were then stained with an Alexa-Fluor 647 pSTAT5 (pY694) antibody (BD 612599) for 60 min prior to analysis on the iQue Plus. The amount of pSTAT5 expression was quantitated by median fluorescence intensity after gating on the CD3 positive population.

in vitro = conditions: human, Caco-2, pH 7.4

| Structure (SMILES) | IC50 [1] [nM] | Papp A→B at 2 h, 3 μM (in vitro) [×10⁻⁶ cm/s] | efflux ratio at 2 h, 3 μM (in vitro) |
| --- | --- | --- | --- |
| [2H]C([2H])([2H])NC(=O)c1nnc(Nc2cc(C)n(C)n2)cc1Nc1cccc(-c2cnn(C)n2)c1OC [Example 6, 6-[(1,5-dimethyl-1H-pyrazol-3-yl)amino]-4-{[2-methoxy-3-(2-methyl-2H-1,2,3-triazol-4-yl)phenyl]amino}-N—(^2H3)methylpyridazine-3-carboxamide] | 20 | 7.4 | 0.9 |
| [2H]C([2H])([2H])NC(=O)c1nnc(NC(=O)[C@H]2C[C@@H]2C)cc1Nc1nc(C)cc(-c2cnn(C)n2)c1OC [Example 48, 4-((3-methoxy-6-methyl-4-(2-methyl-2H-1,2,3-triazol-4-yl)pyridin-2-yl)amino)-N-(methyl-d3)-6-((1S,2S)-2-methylcyclopropane-1-carboxamido)pyridazine-3-carboxamide] | 6800 | 30.1 | 0.3 |
| [2H]C([2H])([2H])NC(=O)c1nnc(Nc2ccc(N3CCOCC3)cn2)cc1Nc1nccc(-c2cnn(C)n2)c1OC [Example 66, 4-{[3-methoxy-4-(2-methyl-2H-1,2,3-triazol-4-yl)pyridin-2-yl]amino}-N—(^2H3)methyl-6-{[5-(morpholin-4-yl)pyridin-2-yl]amino}pyridazine-3-carboxamide] | 0.2 | 22.2 | 0.3 |
| [2H]C([2H])([2H])NC(=O)c1nnc(NC(=O)[C@@H]2C[C@H]2CC)cc1Nc1nccc(-c2cnn(C)n2)c1OC [Example 43, 6-((1R,2R)-2-ethylcyclopropane-1-carboxamido)-4-((3-methoxy-4-(2-methyl-2H-1,2,3-triazol-4-yl)pyridin-2-yl)amino)-N-(methyl-d3)pyridazine-3-carboxamide] | 280 | 13.4 | 0.6 |
| [2H]C([2H])([2H])NC(=O)c1nnc(NC(=O)C2CC2)cc1Nc1cc(C(=O)OC(C)C)cc(-c2cnn(C)n2)c1OC [Example 34, isopropyl 3-((6-(cyclopropanecarboxamido)-3-((methyl-d3)carbamoyl)pyridazin-4-yl)amino)-4-methoxy-5-(2-methyl-2H-1,2,3-triazol-4-yl)benzoate] | 160 | 20.9 | 0.3 |
| CNC(=O)c1nnc(NC(=O)N2CCC2)cc1Nc1cccc(-c2cnn(C)n2)c1OC [Example 51, 6-[(azetidine-1-carbonyl)amino]-4-{[2-methoxy-3-(2-methyl-2H-1,2,3-triazol-4-yl)phenyl]amino}-N—(^2H3)methylpyridazine-3-carboxamide] | 110 | – | – |
| CNC(=O)c1nnc(NC(=O)C2CC2)cc1Nc1cccc(-c2cnn(CCF)n2)c1OC [Example 2, 6-cyclopropaneamido-4-({3-[2-(2-fluoroethyl)-2H-1,2,3-triazol-4-yl]-2-methoxyphenyl}amino)-N—(^2H3)methylpyridazine-3-carboxamide] | 30 | – | – |
| CCn1ncc(-c2c(F)ccc(Nc3cc(NC(=O)C4CC4)nnc3C(=O)NC)c2OC)n1 [Example 10, 6-cyclopropaneamido-4-{[3-(2-ethyl-2H-1,2,3-triazol-4-yl)-4-fluoro-2-methoxyphenyl]amino}-N—(^2H3)methylpyridazine-3-carboxamide] | 290 | – | – |
| CNC(=O)c1nnc(NC(=O)[C@@H]2CC23CC3)cc1Nc1cccc(-c2cnn(C)n2)c1OC [Example 13, 4-{[2-methoxy-3-(2-methyl-2H-1,2,3-triazol-4-yl)phenyl]amino}-N—(^2H3)methyl-6-[(1R)-spiro[2.2]pentane-1-amido]pyridazine-3-carboxamide] | 170 | – | – |
| CNC(=O)c1nnc(NC(=O)C2CC2)cc1Nc1cccc(-c2cnn(C)n2)c1OC [Example 52, 6-cyclopropaneamido-4-({2-methoxy-3-[2-(^2H3)methyl-2H-1,2,3-triazol-4-yl]phenyl}amino)-N—(^2H3)methylpyridazine-3-carboxamide] | 20 | – | – |

Results, then the compound that gave them:

| IC50 [1] [nM] | Papp A→B at 2 h, 3 μM (in vitro) [×10⁻⁶ cm/s] | efflux ratio at 2 h, 3 μM (in vitro) | Structure (SMILES) |
| --- | --- | --- | --- |
| 430 | 18.8 | 0.7 | [2H]C([2H])([2H])NC(=O)c1nnc(NC(=O)C2CC2)cc1Nc1cc(F)c(C)c(-c2cnn(C)n2)c1OC [Example 19, 6-(cyclopropanecarboxamido)-4-((5-fluoro-2-methoxy-4-methyl-3-(2-methyl-2H-1,2,3-triazol-4-yl)phenyl)amino)-N-(methyl-d3)pyridazine-3-carboxamide] |
| 60 | 1.9 | 1.2 | [2H]C([2H])([2H])NC(=O)c1nnc(Nc2ccn(C)n2)cc1Nc1cccc(-c2cnn(C)n2)c1OC [Example 25, 4-((2-methoxy-3-(2-methyl-2H-1,2,3-triazol-4-yl)phenyl)amino)-N-(methyl-d3)-6-((1-methyl-1H-pyrazol-3-yl)amino)pyridazine-3-carboxamide] |
| 170 | 26.5 | 0.4 | [2H]C([2H])([2H])NC(=O)c1nnc(N2CCN(C(C)C)C2=O)cc1Nc1cccc(-c2cnn(C)n2)c1OC [Example 50, 6-(3-isopropyl-2-oxoimidazolidin-1-yl)-4-((2-methoxy-3-(2-methyl-2H-1,2,3-triazol-4-yl)phenyl)amino)-N-(methyl-d3)pyridazine-3-carboxamide] |
| 290 | 59.4 | 0.4 | [2H]C([2H])([2H])NC(=O)c1nnc(Nc2cc(C)n(C)n2)cc1Nc1nccc(-c2cnn(C)n2)c1OC [Example 68, 6-[(1,5-dimethyl-1H-pyrazol-3-yl)amino]-4-{[3-methoxy-4-(2-methyl-2H-1,2,3-triazol-4-yl)pyridin-2-yl]amino}-N—(^2H3)methylpyridazine-3-carboxamide] |
| 330 | 51.1 | 0.7 | [2H]C([2H])([2H])NC(=O)c1nnc(NC(=O)C2CC2)cc1Nc1c(F)ccc(-c2cnn(C)n2)c1OC [Example 22, 6-(cyclopropanecarboxamido)-4-((6-fluoro-2-methoxy-3-(2-methyl-2H-1,2,3-triazol-4-yl)phenyl)amino)-N-(methyl-d3)pyridazine-3-carboxamide] |
| 230 | 1.9 | < 0.8 | [2H]C([2H])([2H])NC(=O)c1nnc(Nc2ccccn2)cc1Nc1cccc(-c2cnn(C)n2)c1OC [Example 8, 4-{[2-methoxy-3-(2-methyl-2H-1,2,3-triazol-4-yl)phenyl]amino}-N—(^2H3)methyl-6-[(pyridin-2-yl)amino]pyridazine-3-carboxamide] |
| 220 | – | – | CNC(=O)c1nnc(NC(=O)C2CC2)cc1Nc1cccc(-c2cnn(CC(F)F)n2)c1OC [Example 3, 6-cyclopropaneamido-4-({3-[2-(2,2-difluoroethyl)-2H-1,2,3-triazol-4-yl]-2-methoxyphenyl}amino)-N—(^2H3)methylpyridazine-3-carboxamide] |
| 490 | – | – | CNC(=O)c1nnc(NC(=O)C2CC2)cc1Nc1cccc(-c2cnn(C3CCC3)n2)c1OC [Example 54, 4-{[3-(2-cyclobutyl-2H-1,2,3-triazol-4-yl)-2-methoxyphenyl]amino}-6-cyclopropaneamido-N—(^2H3)methylpyridazine-3-carboxamide] |
| 130 | – | – | CNC(=O)c1nnc(NC(=O)C2CC2)cc1Nc1nccc(-c2cnn(C)n2)c1OC(F)F [Example 60, 6-cyclopropaneamido-4-{[3-(difluoromethoxy)-4-(2-methyl-2H-1,2,3-triazol-4-yl)pyridin-2-yl]amino}-N—(^2H3)methylpyridazine-3-carboxamide] |

— patent US11866414B2, “Substituted heterocyclic compounds” (BRISTOL-MYERS SQUIBB COMPANY, priority 2021, dated 2024)
